Molecular target: T1, Beta-secretase 1 (Homo sapiens, UniProt P56817)
Experiment: Inhibition of BACE1
Details: not given

T1 sequence (P56817 whole entry): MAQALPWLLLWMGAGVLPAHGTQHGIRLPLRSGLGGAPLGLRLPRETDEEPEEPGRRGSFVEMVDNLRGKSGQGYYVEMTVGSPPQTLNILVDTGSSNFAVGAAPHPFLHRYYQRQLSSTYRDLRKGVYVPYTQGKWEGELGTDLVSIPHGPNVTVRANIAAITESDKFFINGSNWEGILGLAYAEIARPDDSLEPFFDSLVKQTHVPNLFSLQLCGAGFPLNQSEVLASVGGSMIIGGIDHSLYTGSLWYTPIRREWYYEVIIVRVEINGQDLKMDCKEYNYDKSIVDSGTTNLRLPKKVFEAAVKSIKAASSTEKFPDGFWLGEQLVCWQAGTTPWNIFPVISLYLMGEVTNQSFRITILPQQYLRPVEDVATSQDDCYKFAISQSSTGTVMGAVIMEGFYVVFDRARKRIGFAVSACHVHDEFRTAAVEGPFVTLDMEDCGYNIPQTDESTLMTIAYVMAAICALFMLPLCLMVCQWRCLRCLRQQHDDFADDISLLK

Structure (SMILES) | IC50 [nM]
CCc1cn2c3c(cc(C(=O)N[C@@H](Cc4ccccc4)[C@H](O)CNCc4cccc(C(F)(F)F)c4)cc13)OS(=O)(=O)CC2 | 8
CCc1cn2c3c(cc(C(=O)N[C@@H](Cc4ccccc4)[C@H](O)CNC4CC4)cc13)OS(=O)(=O)CC2 | 250
C#CCNC[C@@H](O)[C@H](Cc1ccccc1)NC(=O)c1cc2c3c(c1)c(CC)cn3CCS(=O)(=O)O2 | 360

More lines, now with the values ahead:

IC50 [nM] | Structure (SMILES)
11 | C#CCNC[C@@H](O)[C@H](Cc1ccccc1)NC(=O)c1cc2c3c(cn(CC)c3c1)CCS(=O)(=O)N2C
10 | CC[C@@H](C)NC[C@@H](O)[C@H](Cc1ccccc1)NC(=O)c1cc2c3c(cn(CC)c3c1)CCS(=O)(=O)N2C
22 | CCc1cn2c3c(cc(C(=O)N[C@@H](Cc4ccccc4)[C@H](O)CN[C@H](C)CC)cc13)N(C)S(=O)(=O)CC2

Molecular target: T1, Beta-secretase 1
Experiment: Inhibition of BACE1 in human SHSY5Y cells expressing wild type APP assessed as inhibition of intracellular amyloid beta-40 secretion
Type: cell-based, SH-SY5Y
Details: not given

Structure (SMILES) | IC50 [nM]
C#CCNC[C@@H](O)[C@H](Cc1ccccc1)NC(=O)c1cc2c3c(cn(CC)c3c1)CCS(=O)(=O)N2C | 26
CC[C@@H](C)NC[C@@H](O)[C@H](Cc1ccccc1)NC(=O)c1cc2c3c(cn(CC)c3c1)CCS(=O)(=O)N2C | 64
CCc1cn2c3c(cc(C(=O)N[C@@H](Cc4ccccc4)[C@H](O)CN[C@H](C)CC)cc13)N(C)S(=O)(=O)CC2 | 144

Molecular target: Cathepsin D (Homo sapiens, UniProt P07339)
Experiment: Inhibition of cathepsin-D
Details: not given

Cathepsin D, sequence (P07339 65-162 limits assumed): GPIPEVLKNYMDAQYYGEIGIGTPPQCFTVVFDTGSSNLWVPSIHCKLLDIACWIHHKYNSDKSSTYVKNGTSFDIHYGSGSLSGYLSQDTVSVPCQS
Cathepsin D, sequence (P07339 169-412 limits assumed): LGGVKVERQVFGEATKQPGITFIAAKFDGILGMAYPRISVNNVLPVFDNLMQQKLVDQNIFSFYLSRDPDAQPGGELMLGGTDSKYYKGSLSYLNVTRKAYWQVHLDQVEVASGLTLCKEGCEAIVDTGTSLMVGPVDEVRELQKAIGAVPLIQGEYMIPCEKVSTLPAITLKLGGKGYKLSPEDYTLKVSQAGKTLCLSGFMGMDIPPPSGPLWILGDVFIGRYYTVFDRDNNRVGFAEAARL

Structure (SMILES) | IC50 [nM]
CCc1cn2c3c(cc(C(=O)N[C@@H](Cc4ccccc4)[C@H](O)CNCc4cccc(C(F)(F)F)c4)cc13)OS(=O)(=O)CC2 | 2160
CCc1cn2c3c(cc(C(=O)N[C@@H](Cc4ccccc4)[C@H](O)CNC4CC4)cc13)OS(=O)(=O)CC2 | 2970
C#CCNC[C@@H](O)[C@H](Cc1ccccc1)NC(=O)c1cc2c3c(c1)c(CC)cn3CCS(=O)(=O)O2 | 15100

Other lines, results leading:

IC50 [nM] | Structure (SMILES)
34600 | C#CCNC[C@@H](O)[C@H](Cc1ccccc1)NC(=O)c1cc2c3c(cn(CC)c3c1)CCS(=O)(=O)N2C
1190 | CC[C@@H](C)NC[C@@H](O)[C@H](Cc1ccccc1)NC(=O)c1cc2c3c(cn(CC)c3c1)CCS(=O)(=O)N2C
5430 | CCc1cn2c3c(cc(C(=O)N[C@@H](Cc4ccccc4)[C@H](O)CN[C@H](C)CC)cc13)N(C)S(=O)(=O)CC2

Molecular target: T2, Beta-secretase 2 (Homo sapiens, UniProt Q9Y5Z0)
T2 sequence (Q9Y5Z0 whole entry): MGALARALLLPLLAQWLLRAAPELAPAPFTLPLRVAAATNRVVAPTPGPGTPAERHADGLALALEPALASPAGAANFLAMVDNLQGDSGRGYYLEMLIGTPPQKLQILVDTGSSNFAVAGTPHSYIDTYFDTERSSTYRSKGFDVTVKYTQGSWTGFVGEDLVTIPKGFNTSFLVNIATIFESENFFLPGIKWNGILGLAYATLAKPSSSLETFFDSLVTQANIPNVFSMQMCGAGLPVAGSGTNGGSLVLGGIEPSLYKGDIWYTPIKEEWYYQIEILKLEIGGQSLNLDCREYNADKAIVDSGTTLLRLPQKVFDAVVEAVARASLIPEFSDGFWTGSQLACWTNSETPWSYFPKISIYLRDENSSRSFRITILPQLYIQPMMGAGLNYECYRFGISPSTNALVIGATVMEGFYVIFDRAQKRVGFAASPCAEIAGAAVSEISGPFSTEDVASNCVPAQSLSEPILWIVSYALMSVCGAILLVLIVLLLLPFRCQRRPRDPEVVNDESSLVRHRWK
Experiment: Inhibition of BACE2
Details: not given

Structure (SMILES) | IC50 [nM]
CCc1cn2c3c(cc(C(=O)N[C@@H](Cc4ccccc4)[C@H](O)CNCc4cccc(C(F)(F)F)c4)cc13)OS(=O)(=O)CC2 | 260
CCc1cn2c3c(cc(C(=O)N[C@@H](Cc4ccccc4)[C@H](O)CNC4CC4)cc13)OS(=O)(=O)CC2 | 1150
C#CCNC[C@@H](O)[C@H](Cc1ccccc1)NC(=O)c1cc2c3c(c1)c(CC)cn3CCS(=O)(=O)O2 | 3200

More lines, now with the values ahead:

IC50 [nM] | Structure (SMILES)
1490 | C#CCNC[C@@H](O)[C@H](Cc1ccccc1)NC(=O)c1cc2c3c(cn(CC)c3c1)CCS(=O)(=O)N2C
420 | CC[C@@H](C)NC[C@@H](O)[C@H](Cc1ccccc1)NC(=O)c1cc2c3c(cn(CC)c3c1)CCS(=O)(=O)N2C
430 | CCc1cn2c3c(cc(C(=O)N[C@@H](Cc4ccccc4)[C@H](O)CN[C@H](C)CC)cc13)N(C)S(=O)(=O)CC2

Test system: not listed separately
Experiment: Lipophilicity, log D at pH 7.4
Details: buffer

Structure (SMILES) | logD
CCc1cn2c3c(cc(C(=O)N[C@@H](Cc4ccccc4)[C@H](O)CN[C@H](C)CC)cc13)N(C)S(=O)(=O)CC2 | 1.52
